Experimental data as given in patent US20230295157A1, “3-(1H-IMIDAZOL-2-YL)-2,3,8,8A-TETRAHYDROINDOLIZIN-5(1H)-ONE DERIVATIVES USEFUL AS FACTOR XIA INHIBITORS” (JANSSEN PHARMACEUTICA NV, priority 2020, published 2023).
Read-outs that look alike come from different tables or passages of the source.

Experiments:
human plasma kallikrein = human plasma kallikrein (Homo sapiens (Human), UniProt P03952); assay: Kallikrein inhibition assay (FLINT) utilizing a quenched AMC peptide substrate; assay type: biochemical; conditions: 30 min preincubation, read-out: Kallikrein Kin Inh IC50
Chain of human plasma kallikrein (P03952 391-638): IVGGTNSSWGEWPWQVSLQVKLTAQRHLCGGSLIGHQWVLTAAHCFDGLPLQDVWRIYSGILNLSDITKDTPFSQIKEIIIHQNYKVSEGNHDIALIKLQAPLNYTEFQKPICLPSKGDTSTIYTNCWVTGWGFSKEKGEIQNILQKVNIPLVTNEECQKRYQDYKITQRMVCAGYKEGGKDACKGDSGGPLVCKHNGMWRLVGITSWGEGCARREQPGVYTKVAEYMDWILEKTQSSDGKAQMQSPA
Chain of human plasma kallikrein (P03952 20-390 partner): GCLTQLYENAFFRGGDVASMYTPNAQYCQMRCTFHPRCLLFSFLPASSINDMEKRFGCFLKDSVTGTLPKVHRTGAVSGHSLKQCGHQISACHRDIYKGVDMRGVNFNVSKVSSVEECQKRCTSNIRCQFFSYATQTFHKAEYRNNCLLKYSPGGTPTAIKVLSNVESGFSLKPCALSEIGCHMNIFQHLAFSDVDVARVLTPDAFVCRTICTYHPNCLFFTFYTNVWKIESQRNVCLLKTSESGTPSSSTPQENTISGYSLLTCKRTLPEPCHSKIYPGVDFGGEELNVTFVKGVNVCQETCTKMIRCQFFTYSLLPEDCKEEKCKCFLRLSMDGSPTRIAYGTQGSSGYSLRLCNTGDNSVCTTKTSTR
Method in brief: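 Fluorogenic Z-Gly-Pro-Arg-AMC cleavage (50 μM substrate, 2 nM kallikrein, Tris pH 7.5, CaCl2, BSA, CHAPS, 2% DMSO) read kinetically at 340/440 nm for 30 min after 30-min compound pre-incubation. Compounds in 11-point 3-fold series from 1 μM; percent inhibition fitted to four-parameter equation for IC50.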

Factor XIa = Factor XIa (Homo sapiens (Human), UniProt P03951); assay: Factor XIa inhibition assay (FLINT) utilizing a fluorophore-quencher pair peptide substrate; assay type: biochemical; conditions: 30 min preincubation, kinetic reads over 30 min, read-out: FXIa Kin Inh IC50
Chain of Factor XIa (P03951 388-625): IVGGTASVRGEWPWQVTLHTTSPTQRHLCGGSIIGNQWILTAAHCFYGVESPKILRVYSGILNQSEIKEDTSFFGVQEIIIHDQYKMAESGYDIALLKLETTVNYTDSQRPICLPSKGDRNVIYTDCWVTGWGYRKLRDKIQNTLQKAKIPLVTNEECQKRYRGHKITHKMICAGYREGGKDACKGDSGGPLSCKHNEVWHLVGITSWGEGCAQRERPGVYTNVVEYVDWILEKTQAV
Chain of Factor XIa (P03951 19-387 partner): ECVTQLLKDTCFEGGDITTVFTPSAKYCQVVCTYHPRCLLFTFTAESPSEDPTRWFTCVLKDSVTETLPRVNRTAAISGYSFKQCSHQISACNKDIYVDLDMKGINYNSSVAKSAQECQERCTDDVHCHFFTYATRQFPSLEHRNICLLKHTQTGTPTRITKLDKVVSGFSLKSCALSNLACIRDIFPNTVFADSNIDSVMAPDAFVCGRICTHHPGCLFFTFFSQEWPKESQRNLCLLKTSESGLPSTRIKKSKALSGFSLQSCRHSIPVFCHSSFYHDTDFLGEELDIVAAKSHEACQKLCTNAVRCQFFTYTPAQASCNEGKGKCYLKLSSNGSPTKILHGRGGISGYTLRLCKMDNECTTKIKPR
Method in brief: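 FXIa ([…]) preincubated 30 min with compound (11-point 3-fold dilution, top 100 nM, 2% DMSO), then 15 μM quenched FXI Arg146-based peptide added; Tris pH 7.5, CaCl2, BSA, CHAPS. Fluorescence 485/520 nm read kinetically every 5 min over 30 min at RT; IC50 by 4-parameter fit.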

[1] = kinetic reads over 30 min, Z-Gly-Pro-Arg-AMC substrate 50 μM
[2] = 5Fam-KLTRAETV-K5Tamra substrate 15 μM
[3] = 5Fam-[…]-K5Tamra substrate 15 μM

Row | IC50 (human plasma kallikrein; [1]) [µM] | IC50 (Factor XIa; [2]) [nM] | IC50 (Factor XIa; [3]) [nM] | IC50 (human plasma kallikrein; μM, kinetic reads) [µM] | Structure (SMILES)
1 | 0.0248 | 2.9 | – | – | [2H]c1nc([C@@H]2CC[C@@H]3CC(c4c(-n5cnnn5)ccc(Cl)c4F)=CC(=O)N32)[nH]c1-c1ccnc(CO)c1F [Example 117, (3S,8aR)-7-(3-chloro-2-fluoro-6-(1H-tetrazol-1-yl)phenyl)-3-(5-(3-fluoro-2-(hydroxymethyl)pyridin-4-yl)-1H-imidazol-2-yl-4-d)-2,3,8,8a-tetrahydroindolizin-5(1H)-one]
2 | 0.0007 | – | 0.2 | – | NC(=O)c1ccc(-c2cnc([C@@H]3CC[C@@H]4CC(c5c(-n6cnnn6)ccc(Cl)c5F)=CC(=O)N43)[nH]2)s1 (relative stereo) [Example 238, 5-(2-((3*S,8aR)-7-(3-Chloro-2-fluoro-6-(1H-tetrazol-1-yl)phenyl)-5-oxo-1,2,3,5,8,8a-hexahydroindolizin-3-yl)-1H-imidazol-5-yl)thiophene-2-carboxamide]
3 | 0.0531 | 4 | – | – | Nc1ccc(-c2cnc([C@@H]3CC[C@@H]4CC(c5cc(Cl)ccc5-n5cnnn5)=CC(=O)N43)[nH]2)c(F)n1 (single isomer, unassigned) [Example 122, (3*S,8aR)-3-(5-(6-amino-2-fluoropyridin-3-yl)-1H-imidazol-2-yl)-7-(5-chloro-2-(1H-tetrazol-1-yl)phenyl-3-d)-2,3,8,8a-tetrahydroindolizin-5(1H)-one]
4 | – | 211 | – | 7.3 | Cn1ccnc1-c1c[nH]c([C@@H]2CCC3CC(c4c(-n5cnnn5)ccc(Cl)c4F)=CC(=O)N32)n1 (stereo partly drawn) [Example 334, (3S)-7-(3-chloro-2-Fluoro-6-(1H-tetrazol-1-yl)phenyl)-3-(1-methyl-1H,1′H-[2,4′-biimidazol]-2′-yl)-2,3,8,8a-tetrahydroindolizin-5(1H)-one]
5 | 0.342 | – | 78.7 | – | O=C1C=C(c2c(-n3cnnn3)ccc(Cl)c2F)C[C@@H]2CC[C@@H](c3ncc(-c4cc[n+]([O-])cc4)[nH]3)N12 (relative stereo) [Example 321, 4-(2-((3S,8aS)-7-(3-Chloro-2-fluoro-6-(1H-tetrazol-1-yl)phenyl)-5-oxo-1,2,3,5,8,8a-hexahydroindolizin-3-yl)-1H-imidazol-5-yl)pyridine 1-oxide]
6 | 0.0273 | 3.2 | – | – | [2H]c1nc([C@@H]2CC[C@@H]3CC(c4c(-n5cnnn5)ccc(Cl)c4F)=CC(=O)N32)[nH]c1-c1ccnc(C([2H])([2H])O)c1F [Example 113, (3S,8aR)-7-[3-Chloro-2-fluoro-6-(tetrazol-1-yl)phenyl]-3-[4-deuterio-5-[2-[dideuterio(hydroxy)methyl]-3-fluoro-4-pyridyl]-1H-imidazol-2-yl]-2,3,8,8a-tetrahydro-1H-indolizin-5-one]
7 | 0.0117 | – | 0.9 | – | [2H]c1nc([C@H]2CC[C@]3([2H])CC(c4c(-n5cnnn5)ccc(Cl)c4F)=CC(=O)N23)[nH]c1-c1c(F)nc(N)c([2H])c1[2H] (single isomer, unassigned) [Example 131, (3R*,8aR*)-3-(5-(6-amino-2-fluoropyridin-3-yl-4,5-d2)-1H-imidazol-2-yl-4-d)-7-(3-chloro-2-fluoro-6-(1H-tetrazol-1-yl)phenyl)-2,3,8,8a-tetrahydroindolizin-5(1H)-one-8a-d]
8 | 0.0026 | 2.1 | – | – | O=C1C=C(c2c(-n3cnnn3)ccc(Cl)c2F)C[C@H]2CC[C@@H](c3nc(-c4ccnc5[nH]ncc45)c[nH]3)N12 [Example 38, (3S,8aR)-3-(4-(1H-pyrazolo[3,4-b]pyridin-4-yl)-1H-imidazol-2-yl)-7-(3-chloro-2-fluoro-6-(1H-tetrazol-1-yl)phenyl)-2,3,8,8a-tetrahydroindolizin-5(1H)-one]
9 | 0.0343 | – | 3.8 | – | CC(C)(O)COc1nccc(-c2c[nH]c([C@@H]3CC[C@@H]4CC(c5c(-n6cc(C(F)(F)F)nn6)ccc(Cl)c5F)=CC(=O)N43)n2)c1F [Example 191, (3S,8aR)-7-(3-Chloro-2-fluoro-6-(4-(trifluoromethyl)-1H-1,2,3-triazol-1-yl)phenyl)-3-(4-(3-fluoro-2-(2-hydroxy-2-methylpropoxy)pyridin-4-yl)-1H-imidazol-2-yl)-2,3,8,8a-tetrahydroindolizin-5(1H)-one]
10 | 0.0012 | – | 0.6 | – | O=C1CCc2cc(-c3cnc([C@@H]4CC[C@H]5CC(c6c(-n7cnnn7)ccc(Cl)c6F)=CC(=O)N54)[nH]3)ccc2N1 (relative stereo) [Example 280, 6-(2-((3S,8aS)-7-(3-Chloro-2-fluoro-6-(1H-tetrazol-1-yl)phenyl)-5-oxo-1,2,3,5,8,8a-hexahydroindolizin-3-yl)-1H-imidazol-5-yl)-3,4-dihydroquinolin-2(1H)-one]
11 | 0.0206 | 9.6 | – | – | O=C1C=C(c2c(-n3cnnn3)ccc(Cl)c2F)C[C@H]2CC[C@H](c3ncc(-c4ccnc(-n5cncn5)c4F)[nH]3)N12 (single isomer, unassigned) [Example 112, (3*R,8aR)-7-(3-chloro-2-fluoro-6-(1H-tetrazol-1-yl)phenyl)-3-(5-(3-fluoro-2-(1H-1,2,4-triazol-1-yl)pyridin-4-yl)-1H-imidazol-2-yl)-2,3,8,8a-tetrahydroindolizin-5(1H)-one]
12 | 0.0114 | 1.8 | – | – | COC(=O)Nc1nccc(-c2cnc([C@@H]3CC[C@@H]4CC(c5c(-n6cnnn6)ccc(Cl)c5F)=CC(=O)N43)[nH]2)c1F [Example 44, Methyl(4-(2-((3S,8aR)-7-(3-chloro-2-fluoro-6-(1H-tetrazol-1-yl)phenyl)-5-oxo-1,2,3,5,8,8a-hexahydroindolizin-3-yl)-1H-imidazol-5-yl)-3-fluoropyridin-2-yl)carbamate]
13 | 0.0017 | 1.4 | – | – | NC(=O)c1scc(-c2c[nH]c([C@@H]3CC[C@@H]4CC(c5c(-n6cnnn6)ccc(Cl)c5F)=CC(=O)N43)n2)c1F [Example 214, 4-(2-((3S,8aR)-7-(3-Chloro-2-fluoro-6-(1H-tetrazol-1-yl)phenyl)-5-oxo-1,2,3,5,8,8a-hexahydroindolizin-3-yl)-1H-imidazol-4-yl)-3-fluorothiophene-2-carboxamide]
14 | 0.007 | 1.7 | – | – | O=C1C=C(c2c(-n3cnnn3)ccc(Cl)c2F)C[C@H]2CC[C@@H](c3nc(Cl)c(-c4ccnc([C@@H](O)C(F)(F)F)c4)[nH]3)N12 [Example 173, (3S,8aR)-7-(3-chloro-2-fluoro-6-(1H-tetrazol-1-yl)phenyl)-3-(4-chloro-5-(2-((R)-2,2,2-trifluoro-1-hydroxyethyl)pyridin-4-yl)-1H-imidazol-2-yl)-2,3,8,8a-tetrahydroindolizin-5(1H)-one]
15 | 0.0013 | 0.2 | – | – | COC(=O)Nc1ccc(-c2cnc([C@@H]3CC[C@@H]4CC(c5c(-n6cnnn6)ccc(Cl)c5F)=CC(=O)N43)[nH]2)cc1 [Example 341, Methyl (4-(2-((3S,8aR)-7-(3-chloro-2-fluoro-6-(1H-tetrazol-1-yl)phenyl)-5-oxo-1,2,3,5,8,8a-hexahydroindolizin-3-yl)-1H-imidazol-5-yl)phenyl)carbamate]
16 | 0.0178 | > 100 | – | – | NC(=O)c1cc(-c2cnc([C@@H]3CC[C@H]4CC(c5c(-n6cnnn6)ccc(Cl)c5F)=CC(=O)N43)[nH]2)ccc1F [Example 232, 5-(2-((3S,8aS)-7-(3-Chloro-2-fluoro-6-(1H-tetrazol-1-yl)phenyl)-5-oxo-1,2,3,5,8,8a-hexahydroindolizin-3-yl)-1H-imidazol-5-yl)-2-fluorobenzamide]
17 | 0.0061 | 3.6 | – | – | O=C1C=C(c2c(-n3cnnn3)ccc(Cl)c2F)C[C@@H]2CC[C@@H](c3nc(Cl)c(-c4ccnc([C@H](O)C(F)(F)F)c4)[nH]3)N12 (single isomer, unassigned) [Example 172, (3*S,8a*S)-7-(3-chloro-2-fluoro-6-(1H-tetrazol-1-yl)phenyl)-3-(4-chloro-5-(2-((*S)-2,2,2-trifluoro-1-hydroxyethyl)pyridin-4-yl)-1H-imidazol-2-yl)-2,3,8,8a-tetrahydroindolizin-5(1H)-one]
18 | 0.0073 | 0.5 | – | – | [2H][C@]12CC[C@@H](c3ncc(-c4ccc(N)nc4F)[nH]3)N1C(=O)C=C(c1c(-n3cnnn3)ccc(Cl)c1F)C2 [Example 146, (3S,8aR)-3-[5-(6-amino-2-fluoro-3-pyridyl)-1H-imidazol-2-yl]-7-[3-chloro-2-fluoro-6-(tetrazol-1-yl)phenyl]-8a-deuterio-1,2,3,8-tetrahydroindolizin-5-one]
19 | 0.0306 | 4.2 | – | – | O=C1C=C(c2c(-n3cnnn3)ccc(Cl)c2F)C[C@H]2CC[C@H](c3ncc(-c4ccnc(C5(O)CC5)c4F)[nH]3)N12 (single isomer, unassigned) [Example 162, (3*R,8aR)-7-(3-chloro-2-fluoro-6-(1H-tetrazol-1-yl)phenyl)-3-(5-(3-fluoro-2-(1-hydroxycyclopropyl)pyridin-4-yl)-1H-imidazol-2-yl)-2,3,8,8a-tetrahydroindolizin-5(1H)-one]
20 | 0.0075 | – | 0.7 | – | [2H]c1c(NC)nc(F)c(-c2cnc([C@H]3CC[C@@H]4CC(c5c(-n6cnnn6)ccc(Cl)c5F)=CC(=O)N43)[nH]2)c1[2H] (relative stereo) [Example 133, (3R*,8aR)-7-(3-chloro-2-fluoro-6-(1H-tetrazol-1-yl)phenyl)-3-(5-(2-fluoro-6-(methylamino)pyridin-3-yl-4,5-d2)-1H-imidazol-2-yl)-2,3,8,8a-tetrahydroindolizin-5(1H)-one]
